Measurements reported in patent US20220347118A1, “STABLE MEDICINAL CANNABIDIOL COMPOSITIONS” (CARDIOL THERAPEUTICS INC., priority 2019, published 2022).

Columns and labels:
Solubility of CBD in BCP = format: physicochemical; conditions: in 1 mL of BCP and its derivatives
Description: For example, at least 300 mg of CBD can be dissolved in 1 mL of BCP and its derivatives. The enhanced stability of the CBD provides a composition with an acceptable shelf life and which can provide consistency in dosing and enhanced safety.

CB2 receptor = CB2 receptor (Homo sapiens, UniProt P34972); conditions: Proc Natl Acad Sci USA. 2008; 105(26):9099-104; cited from earlier work
CB2 receptor, sequence (P34972 whole entry): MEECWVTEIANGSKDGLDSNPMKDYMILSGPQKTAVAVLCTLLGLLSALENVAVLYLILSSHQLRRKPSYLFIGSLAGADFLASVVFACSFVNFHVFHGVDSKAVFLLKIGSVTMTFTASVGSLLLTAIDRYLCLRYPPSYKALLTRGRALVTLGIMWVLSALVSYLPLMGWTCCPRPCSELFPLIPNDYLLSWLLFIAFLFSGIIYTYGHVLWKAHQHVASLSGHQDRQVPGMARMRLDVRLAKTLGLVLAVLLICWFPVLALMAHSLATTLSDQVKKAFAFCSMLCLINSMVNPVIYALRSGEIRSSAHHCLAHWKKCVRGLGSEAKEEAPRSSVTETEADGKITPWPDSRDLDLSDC

Row | SMILES | amount of CBD that can be dissolved in BCP (Solubility of CBD in BCP) | CB2 receptor binding / functional activity (CB2 receptor)
1 | C=C(C)[C@@H]1CCC(C)=C[C@H]1c1c(O)cc(CCCCC)cc1O [CBD, cannabidiol] | at least 300 mg | –
2 | C=C1CC/C=C(\C)CC[C@@H]2[C@@H]1CC2(C)C [β-caryophyllene, trans-(1R,9S)-8-Methylene-4,11,11-trimethylbicyclo[7.2.0]undec-4-ene] | – | selectively binds to the CB2 receptor and is a functional CB2 agonist
